Structures are written as SMILES. Several values for one entry are separate records, joined by “and”; a condition that tells them apart may be missing. Equal values may be shown once.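 Five compound concentrations were applied to cells in 96-well plates for 48 hours; endpoints were derived by simple linear interpolation of the resulting dose-response curve. Abbreviation: GI50, concentration required for 50% inhibition of growth. TGI: concentration producing complete growth inhibition.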

The values below come from PubChem BioAssay (NCI).

Some test systems named below: MDA-MB-468 breast; ACHN renal; HL-60(TB) leukemia; HS 578T breast; NCI/ADR-RES ovarian; OVCAR-5 ovarian; RXF 393 renal; SK-MEL-28 melanoma; SNB-75 CNS.
What all share (assay): NCI-60 cell line screen, 48 h

Consider `CCCCN(CCCC)CCCN=c1nc2c(c(N)n1-c1ccccc1)c(=S)n(-c1ccccc1)c(=S)n2-c1ccccc1`, for which, in the test on MDA-MB-468 breast, the GI50 was 0.218 µM and the TGI worked out at 0.518 µM.
For `COC(=O)[C@@]1(C)CC[C@]2(C)CC[C@]3(C)C4=CC=C5C(=CC(=O)C(O)=C5C)[C@]4(C)CC[C@@]3(C)[C@@H]2C1`, in the test with MDA-MB-468 breast, the GI50 was 0.165 µM and the TGI turned out to be 0.359 µM.
The matching figures for `Cc1cc(-c2nc(-c3ccc(OC(F)(F)F)cc3)no2)nn1Cc1ccnc(N2CCN(C3CC3)CC2)c1`: < 0.01 µM and 5.68 µM.
For the compound `CCOc1ccc(/C=C/[N+](=O)[O-])cc1`, in the test on MDA-MB-468 breast, the GI50 is 1.97 µM and the TGI was found to be 3.97 µM.
Consider `C=CCN(/C=C1\C(=O)O[C@H](COC)[C@@]2(C)C1=C(O)C(=O)C1=C2[C@H](OC(C)=O)C[C@]2(C)C(=O)CC[C@@H]12)CC=C`, for which, in the test on MDA-MB-468 breast, the GI50 was 0.0778 µM and the TGI came to 0.649 µM.
For the compound `COc1ccc(/C=C/c2n(Cc3ccc4ccccc4c3)c3ccccc3[n+]2Cc2ccc3ccccc3c2)cc1`, the GI50 with ACHN renal was 1.12 µM; with HL-60(TB) leukemia it was 0.268 µM; in the test on HS 578T breast it was 0.583 µM; with NCI/ADR-RES ovarian, 2.11 µM; in the test on OVCAR-5 ovarian, 0.828 µM; in the test on RXF 393 renal, 0.377 µM. Further, the GI50 in the test with SK-MEL-28 melanoma was 0.818 µM; in the test with SNB-75 CNS, 0.15 µM. Also, the TGI came to 2.32 µM in the test with ACHN renal; 0.993 µM with HL-60(TB) leukemia; 2.85 µM in the test on HS 578T breast; 5.43 µM in the test with NCI/ADR-RES ovarian; 2.11 µM in the test on OVCAR-5 ovarian; 1.59 µM with RXF 393 renal. Further, the TGI turned out to be 2.08 µM in the test with SK-MEL-28 melanoma and 1.48 µM in the test with SNB-75 CNS.
With `COc1ccc(/C=C/c2cc(N3CCOCC3)c3cc(F)c(F)cc3n2)cc1OC`, in the test with MDA-MB-468 breast, the GI50 is 0.277 µM and the TGI was 1.64 µM.
As for `C=C1CCC2C3(C)COC(c4ccc(SC)cc4)OC3CCC2(C)C1C/C=C1/C(=O)OCC1O` (configuration not stated), in the test with MDA-MB-468 breast, the GI50 was 5.34 µM and the TGI was found to be 18.3 µM.
In the case of `CCCN(CCC)CCCNC(=O)c1cc2c(-c3ccc(OC)c(OC)c3)nn(C)c2s1`, in the test with MDA-MB-468 breast, the GI50 was 14 µM and the TGI worked out at 34.5 µM.
In the case of `CC1=C(/C=C/C(C)=C/C=C/C(C)=C/C(=O)Nc2ccc(O)cc2)C(C)(C)CCC1`, in the test with MDA-MB-468 breast, the GI50 was 2.22 µM and the TGI came to 8.41 µM.
Take `CC[C@@H](C(=O)[C@@H](C)[C@@H](O)[C@H](C)[C@@H]1O[C@@H]([C@@H](CC)C(=O)O)CC[C@@H]1C)[C@H]1OC2(C=C[C@@H](O)[C@]3(CC[C@@](C)([C@H]4CC[C@](O)(CC)[C@H](C)O4)O3)O2)[C@H](C)C[C@@H]1C` (some centres not stated): in the test on MDA-MB-468 breast, the GI50 was 0.15 µM and the TGI came out at 1.95 µM.
For the compound `Oc1cc(O)c2c(=S)cc(-c3ccc(Cl)cc3)oc2c1`, in the test with MDA-MB-468 breast, the GI50 was 0.26 µM and the TGI came out at 3.1 µM.
As to `N#Cc1cccc(NC(=O)c2oc3ccccc3c2-c2cnn(-c3ccccc3)c2)c1`, in the test on MDA-MB-468 breast, the GI50 was 406 µM and the TGI is > 500 µM.
Consider `COc1ccc(C2=C(c3cc(OC)c(OC)c(OC)c3)C(=O)CC2)cc1`, for which the GI50 in the test on MDA-MB-468 breast is 0.0673 µM.
As to `Cc1nc(/N=C(\N)NC(=O)Nc2ccccc2Cl)sc1C`, in the test with MDA-MB-468 breast, the GI50 was 0.459 µM and the TGI was determined as 4.67 µM.
For `CCO/C=N/C1=C(C#N)C(c2ccc(F)cc2)c2sc3c(CC)cccc3c2O1` (configuration not stated), in that order: 0.421 µM and 16 µM.
On to `CNC(C)C(=O)N[C@H](C(=O)N1CCC[C@@H]1CN(CCc1ccccc1)C(=O)C(F)(F)F)[C@H](C)OCC#CC#CCO[C@H](C)[C@H](NC(=O)[C@H](C)NC)C(=O)N1CCC[C@H]1CN(CCc1ccccc1)C(=O)C(F)(F)F` (some centres not stated), for which, in the test on MDA-MB-468 breast, the GI50 was < 0.01 µM and the TGI came out at 0.0221 µM.
The matching figures for `CC[CH2][Sn]([Cl])([Cl])[CH2]CC`: 1.92 µM and 6.96 µM.
`COC(=O)[C@H](CC(C)C)NC(=O)NC(=O)NC(=O)CI`: in the test on MDA-MB-468 breast, the GI50 is 1.97 µM and the TGI was 4.24 µM.
For `CC(=O)OC[C@]12CC[C@@H]([C@@H](C)C(N)=O)[C@@H]1[C@H]1CC[C@@H]3[C@@]4(C)CC[C@H](OC(C)=O)C(C)(C)[C@@H]4CC[C@@]3(C)[C@]1(C)CC2`, in the test with MDA-MB-468 breast, the GI50 was 3.96 µM and the TGI is 15.6 µM.
For `COc1cccc(C2C3=C(COC3=O)N(CCO)c3cc4c(cc32)OCCO4)c1` (configuration not stated), in that order: 0.0684 µM and 1.27 µM.
On to `COc1ccc(/C=C\c2cc(OC)c(OC)c(OC)c2)cc1OC(=O)c1cccc(Cn2cc(CCOC(=O)c3cccc(Cn4nnc5c4C(=O)c4ccccc4C5=O)c3)nn2)c1`, for which the GI50 with MDA-MB-468 breast is < 0.0138 µM.
Turning to `COc1cc(C2CC(c3cc(C)ccc3C)=NN2c2ccc(S(=O)(=O)NC(=O)NCc3ccccc3)cc2)cc(OC)c1OC` (configuration not stated), in the test with MDA-MB-468 breast, the GI50 is 2.32 µM and the TGI was 5.53 µM.
For `c1ccc(-c2nn(-c3ccccc3)[n+](-c3cccc4ccccc34)n2)cc1`, in that order: 0.265 µM and 1.77 µM.
In the case of `CC[C@H](C)n1cc(C)c2c(C(=O)NCc3c(C)cc(C)[nH]c3=O)cc(-c3ccc(N4CCNCC4)nc3)cc21`, in the test on MDA-MB-468 breast, the GI50 was 2.15 µM and 5.09 µM; the TGI was 7.63 µM and 18.7 µM.
With `N#Cc1c(-c2ccc(Cl)cc2)nc(SCc2ccc(F)cc2)nc1N1CCNCC1`, in the test with MDA-MB-468 breast, the GI50 was 1.47 µM and the TGI is 2.88 µM.
In the case of `C#COc1cccc(Nc2ncnc3ncc(NC(=O)CCl)cc23)c1`, in the test with MDA-MB-468 breast, the GI50 is > 35.4 µM and the TGI was > 62.5 µM.
Take `CN(C)CCCNc1nccc(-c2c(-c3ccc(F)cc3)nn3cc(C(F)(F)F)ccc23)n1`: in the test on MDA-MB-468 breast, the GI50 is 3.03 µM and the TGI stood at 7.35 µM.
`OC(COc1cccc2ccccc12)CN1CCN(c2ccccc2)CC1` (configuration not stated): in the test on MDA-MB-468 breast, the GI50 was 16.6 µM and the TGI turned out to be 31.1 µM.
The matching figures for `CCN(CC)CCCC(Nc1c2ccc(Cl)cc2nc2ccc(OC)cc12)c1ccc(F)cc1` (configuration not stated): 1.65 µM and 3.22 µM.
The matching figures for `COc1ccc(-c2nn(-c3cccc(NC(=O)Nc4cc(C(F)(F)F)cc(C(F)(F)F)c4)c3)cc2-c2ccncc2)cc1Cl`: 0.641 µM and 2.89 µM.
Consider `N#Cc1c(NC(=O)CN2CCOCC2)sc2c1CCCC2`, for which, in the test on MDA-MB-468 breast, the GI50 is > 21.7 µM and the TGI was > 25 µM.
Take `CNc1ccc(-c2cc(=O)oc3ccc(Cl)cc23)cc1`: in the test with MDA-MB-468 breast, the GI50 was 0.219 µM and 0.0841 µM; the TGI is 0.926 µM and 0.877 µM.
With `Cn1cc(C[C@@H](N)C(=O)O)c2ccccc21`, in the test with MDA-MB-468 breast, the GI50 is > 100 µM and the TGI was > 100 µM.
With `N#Cc1c(-c2ccccc2)cc(-c2ccccc2)n(CCCCC(=O)NO)c1=O`, in the test with MDA-MB-468 breast, the GI50 is 2.51 µM and the TGI was 11.8 µM.
`COC(=O)Nc1nc2cc3c(cc2s1)OCCO3`: in the test with MDA-MB-468 breast, the GI50 is 29.2 µM and the TGI was > 50 µM.
The matching figures for `COc1cc([C@@H]2c3cc4c(cc3[C@@H](O[C@@H]3O[C@@H]5CO[C@@H](c6cccs6)O[C@H]5[C@H](O)[C@H]3O)[C@H]3COC(=O)[C@H]23)OCO4)cc(OC)c1O`: 0.186 µM and 0.537 µM.
Regarding `CN1CCN(Cc2ccc(NC(=O)c3ccc(C#N)c(C#Cc4cnc(N)c5ncccc45)c3)cc2C(F)(F)F)CC1`, in the test on MDA-MB-468 breast, the GI50 is 16.9 µM and the TGI came to 63.5 µM.
`O=C1/C(=C/c2ccccc2)CCC/C1=C\c1ccccc1`: in the test with MDA-MB-468 breast, the GI50 is 3.12 µM and the TGI came to 19.4 µM.
In the case of `Nc1ccccc1NC(=O)c1ccc(CN2CCC/C(=C\c3cccc(Cl)c3)C2=O)cc1`, in the test on MDA-MB-468 breast, the GI50 was 0.0636 µM and the TGI was 5.9 µM.
Regarding `Clc1ccc(-c2nn3ncccc3c2-c2ccnc(Nc3ccccc3)n2)cc1`, in the test with MDA-MB-468 breast, the GI50 was 1.19 µM and the TGI was determined as 9.63 µM.
Take `CC1=C([Se]CC(OC(=O)[C@@H](CO)NC(=O)OC(C)(C)C)C(=O)NC(C)(C)C)C(=O)c2ccccc2C1=O` (some centres not stated): in the test on MDA-MB-468 breast, the GI50 was 0.759 µM and the TGI came to 2.29 µM.
The matching figures for `COc1c(CNC(=O)CCl)cc2[nH]c(C)cc2c1CNC(=O)CCl`: 5.94 µM and 25.9 µM.
Regarding `COc1ccc(Cc2cnc(NC(=O)c3sc4ccccc4c3Cl)s2)cc1`, in the test on MDA-MB-468 breast, the GI50 is 0.416 µM and the TGI was > 100 µM.
As for `COc1cc([C@@H]2c3cc4c(cc3[C@H](O)[C@H]3COC(=O)[C@H]23)OCO4)cc(OC)c1OC`, in the test with MDA-MB-468 breast, the GI50 was < 0.01 µM and the TGI is < 0.01 µM.
On to `C#CCNC(=O)CC[C@]1(C)[C@H]2CC[C@@H]3[C@@H]([C@@](C)(O)CCC=C(C)C)CC[C@@]3(C)[C@]2(C)CC[C@H]1C(=C)C`, for which, in the test with MDA-MB-468 breast, the GI50 is 33.6 µM and the TGI is > 100 µM.
Turning to `O=C1/C(=C\c2coc3ccccc3c2=O)c2ccccc2N1c1c(Cl)cccc1Cl`, in the test with MDA-MB-468 breast, the GI50 was 2.44 µM and the TGI came to 13.1 µM.
The matching figures for `COc1ccc(-c2cc(/C=C3\C(=O)Nc4ccc(OC)cc43)[nH]n2)cc1`: 3.71 µM and > 100 µM.
For `C/C(=C\CCc1ccoc1)CC/C=C(\C)CCCN1CCC(CO)CC1`, in the test with MDA-MB-468 breast, the GI50 is 1.7 µM and the TGI was determined as 4.45 µM.
With `N#CN1CCC[C@H]1C(=O)N1CCc2c(-c3[nH]nc4ncccc34)cccc21`, in the test on MDA-MB-468 breast, the GI50 is < 0.01 µM and the TGI was < 0.01 µM.
